Source: PMC9569954, “The Antidepressant-like Activity, Effects on Recognition Memory Deficits, Bioavailability, and Safety after Chronic Administration of New Dual-Acting Small Compounds Targeting Neuropsychiatric Symptoms in Dementia” (International Journal of Molecular Sciences, 2022)

Legend:
[1] = MTT cytotoxicity on normal human dermal fibroblast cells; assay type: cell-based; conditions: NHDF cells (normal human dermal fibroblasts), highest tested concentration (75 μM), read-out: cell viability
From the text: Alpha-MEM and the normal human dermal fibroblast cell line (NHDF) were obtained from Lonza (Lonza, Warsaw, Poland). Phosphate-buffered saline (PBS), fetal bovine serum (FBS), L-glutamine, and 100× antibiotic–antimycotic were from Cytogene (Zgierz, Poland). MTT (3-(4,5-dimethylthiazol-2-yl)-2,5-diphenyltetrazolium bromide) was from Sigma-Aldrich (Poznan, Poland) and DMSO was purchased from Archem (Kamieniec Wroclawski, Poland).
The viability of NHDF cells after treatment with PQA-AZ4 and PQA-AZ-6 was assayed using the previously described methodology. Briefly, 4.5 × 10^3 cells/well were seeded into a 96-multiwell plate and viability was evaluated using the MTT assay. Different volumes of each compound dissolved in DMSO (final concentrations 4.68, 9.37, 18.75, 37.5, and 75 μM, respectively), as well as DMSO itself as solvent control, were added to each well, mixed, and incubated for 48 h. Finally, the optical density was measured at 560 nm with a reference wavelength of 670 nm using an Asys UVM 340 Microplate Reader (Cambridge, UK). Results were expressed as the percentage of survival cells concerning the control (not treated cells).

5-HT1AR = test system: 5-HT1AR; set-up: method as in PMID 35248836; conditions: cited from earlier work
PDE10A = test system: PDE10A; set-up: method as in PMID 35248836; conditions: read-out: Inhibition PDE10A IC50; cited from earlier work
[2] = test system: (+)-MK-801-induced memory deficits; assay: Novel object recognition (NOR) test in (+)-MK-801 treated rats; assay type: in vivo, male Wistar rats; conditions: rat; for Total Exploratory Time in T2 Session: vehicle 49.67 ± 4.63; for effect on (+)-MK-801-induced recognition memory deficits (discrimination index): 21 days, (+)-MK-801 0.1 mg/kg i.p.
Experimental: The rats were injected with the respective compounds for 21 consecutive days at the minimum active doses selected previously, based on acute treatment and assessment in the NOR test. The protocol for the NOR test was adapted from the original work and the test was performed according to the previously described protocol, 24 h after the last injection of the investigated compound. The discrimination index (DI) was calculated according to the formula:(7) DI=(EB−EA)/(EA+EB) where EB is the exploration time of novel object during the T2 session and EA is the exploration time of […].
PQA-AZ4 and PQA-AZ-6 were administered for 60 and 30 min, respectively, before the T1 phase (the familiarization phase). MK-801 was used to attenuate learning and was administered at a dose of 0.1 mg/kg (i.p.) 30 min before the familiarization phase (T1). The total exploration time in T2 was used to determine the influence of the treatment on the exploratory activity of the animals.

Row | SMILES | viability at 48 h, 75 µM [1] [%] | Functional profile at 5-HT1AR (5-HT1AR) | IC50 (PDE10A) [µM] | Total Exploratory Time in T2 Session ([2]; 1 mg/kg/day i.p. 21 days + (+)-MK-801 0.1 mg/kg) | effect on (+)-MK-801-induced recognition memory deficits (discrimination index) ([2]; 1 mg/kg/day i.p.) | Total Exploratory Time in T2 Session ([2]; 3 mg/kg/day i.p. 21 days + (+)-MK-801 0.1 mg/kg) | effect on (+)-MK-801-induced recognition memory deficits (discrimination index) ([2]; 3 mg/kg/day i.p.)
1 | COc1cccc(N2CCN(CC3CCN(c4ncnc5cc(OC)c(OC)cc45)C3)CC2)c1 (stereo not shown) [PQA-AZ4, 6,7-Dimethoxy-4-(3-((4-(3-methoxyphenyl)piperazin-1-yl)methyl)pyrrolidin-1-yl)quinazoline] | 19.9 | partial agonists | 7.07 | 28.83 ± 2.50 p < 0.01 vs. veh; p < 0.05 vs. (+)-MK-801 F(2,16) = 7.3773; p < 0.01 | restored recognition memory deficits |  | 
2 | COc1cc2ncnc(N3CCC(CN4CCN(c5ccc(Cl)cc5)CC4)C3)c2cc1OC (stereo not shown) [PQA-AZ6, 4-(3-((4-(4-Chlorophenyl)piperazin-1-yl)methyl)pyrrolidin-1-yl)-6,7-dimethoxyquinazoline] | 84 | partial agonists | 5.68 |  |  | 39.57 ± 4.39 F(2,17) = 1.3060; NS s | restored recognition memory deficits
